In patent US20140051650A1, “VAGINAL COMPOSITIONS BASED ON ALKYL POLYGLUCOSIDES” (EFFIK S.A., priority 2011, published 2014):
≈ marks a conversion by molar mass, not a printed value. Read-outs that look alike come from different tables or passages of the source.

How the values were obtained:
[1] = system: Neisseria gonorrhoeae ATCC 43069; test: MBC against Neisseria gonorrhoeae; type: cell-based; details: substance alone
Method: (§1) The Gardnerella vaginalis ATCC 14018 strain, the Neisseria gonorrhoeae ATCC 43069 strain and the Candida albicans ATCC 10231 strain were also used for the experiment. [table] The other assayed microbial strains were cultured in the liquid media and in the incubation conditions specified in table A, following the operating procedure described above. Immediately after determining the value of the MIC for each substance, a volume equivalent to 50 μl was taken from each well and streaked on the surface of plates containing the solid medium. The plates were subsequently incubated at the conditions indicated for each microbial strain. After incubation at 37° C. for 24 hours, the number of colonies grown on the medium surface was counted thus determining the number of bacteria that survived after 24 hours of contact with the substance at the concentration present in the well. The MBC value defined as the lowest concentration of each substance capable of reducing the bacterial load by 99.9% in the previously defined assay conditions was determined through comparison between the number of bacteria that survived in each well and that of the bacterial inoculum deposited initially.

Streptococcus agalactiae [2] = test: Minimum Bactericidal Concentration (MBC) in liquid medium against Streptococcus agalactiae; type: cell-based
Method: Three Streptococcus agalactiae strains isolated from vaginal-rectal buffers during the prenatal check-ups were used for the assay. The strains were named “strain 2”, “strain 10” and “strain 11”. Isolation was carried out on a blood agar medium and identification was obtained through biochemical tests of the API 20 Strep (Bio-Mérieux) system and through the identification of the Lancefield group.
The experiments were also carried out on a Streptococcus agalactiae ATCC 12386 strain.
“Brain Heart Infusion broth” (BHIb, Becton Dickinson) medium was used for the Streptococcus agalactiae culture, “Mueller-Hinton broth” (M-Hb) medium after adding 2% “laked” horse blood and the “Mueller-Hinton agar” (M-Ha) medium with addition of defibrinated horse blood at 5% (Oxoid) were used for the antimicrobial activity assays.
The Streptococcus agalactiae strains were cultured in BHIb broth for 24 hours at 37° C. Immediately before the assay, the bacterial suspensions were diluted up to obtaining turbidity equivalent to 0.5 McFarland standard. 50 μl of a further 1:100 dilution in broth+blood at 2% were distributed in the wells of the microtitre plates. The presumed titre of the inoculum carried out through this procedure is of about 5×10^4 ufc (units forming colony)/well.
The bacterial cultures were also diluted serially according to a value 10 (up to a dilution value equivalent to 10^−7) and an aliquot of 0.1 ml of each dilution was double streaked on M-Ha +blood 5% for determining the actual titre to be used, subsequently, to determine the MBC (Minimum Bactericidal Concentration).
The assay was carried out in 96-well microtitre plates. 50 μl of M-Hb at normal concentration were deposited in the first well of each of the 5 rows. Starting from the first well of each row, […] volumes were transferred from each well to the subsequent one 10 times, thus obtaining a series of dilutions after doubling. The 12th well of each row was kept substance-free as a positive control of the bacterial growth.
Subsequently, 50 μl of bacterial inoculum of M-Hb+double concentration blood (4%) were deposited in all wells of the plate, except for the 11th of each row. Only M-Hb+double concentration blood but bacteria-free, were deposited in the 11th well, with the aim of providing negative control for each row. The described scheme was used for the assay of each of the three Streptococcus agalactiae strains.
as §1, with “Immediately” for “The Gardnerella vaginalis ATCC 14018 strain, the Neisseria gonorrhoeae ATCC 43069 strain and the Candida albicans ATCC 10231 strain were also used for the experiment. [table] The other assayed microbial strains were cultured in the liquid media and in the incubation conditions specified in table A, following the operating procedure described above. Immediately”

[3] = system: Neisseria gonorrhoeae ATCC 43069; test: MIC against Neisseria gonorrhoeae; type: cell-based; details: substance alone
Method: (§2) The Gardnerella vaginalis ATCC 14018 strain, the Neisseria gonorrhoeae ATCC 43069 strain and the Candida albicans ATCC 10231 strain were also used for the experiment.
(§3) The other assayed microbial strains were cultured in the liquid media and in the incubation conditions specified in table A, following the operating procedure described above.
(§4) The assay was carried out in 96-well microtitre plates. 50 μl of substance solution at the “mother” concentration alongside 50 μl of liquid medium at double concentration were deposited in the first well of each of the 8 rows while 50 μl of liquid medium at normal concentration were deposited in the remaining 11 wells. Starting from the first well of each row, 50 μl volumes were transferred from each well to the subsequent one 10 times, thus obtaining a series of 11 dilutions after doubling. The 12th well of each row was kept substance-free as a function of positive control of the bacterial growth.
(§5) Subsequently, 50 μl of diluted bacterial inoculum as specified previously were deposited in all wells of the plate, except for the 11th of each row. Only the liquid medium at single concentration but bacteria-free, was deposited in the 11th well, with the aim of providing negative control for each row. The described scheme was used for the assay with each of the assayed microbial strains. […]

[4] = "Mother" concentration: highest concentration at which complete solubilisation could be obtained; type: physicochemical; details: propylene glycol 30% in water, aqueous with cosolvent or surfactant or cyclodextrin; solvent prop glycol 30% in water; read-out: "mother" conc. (highest concentration at which complete solubilisation could be obtained)
Method: The substances to be subjected to the analysis were prepared for the assay through dilution and sterilisation as described hereinafter.
The concentration of the substances referred to as “mother” represents the highest concentration at which complete solubilisation could be obtained and it is […] than the highest concentration assayed in the test.

Streptococcus agalactiae [5] = test: Minimum Inhibitory Concentration (MIC) on agarised medium against Streptococcus agalactiae; type: cell-based
Method: The assay was carried out on an M-Ha medium+blood at 5%. The medium was prepared at a concentration 33% higher with respect to the final one used in the test corresponding to the one indicated by the supplier. After sterilisation in autoclave, the medium was balanced at the temperature of 48° C. and added with horse blood at the concentration of 6.6% (33% higher than the final concentration of the assay). 15 ml aliquots of M-Ha medium+blood were transferred into 50 ml falcon test tubes maintained at 48° C., added with 5 ml of the dilutions of the substances to be assayed, mixed, poured into Petri dishes and left to solidify. Twenty-five bacterial inoculums, each with approximate volume of about 5 μl and containing about 10^5 ufc, were deposited on the surface of the M-Ha medium+blood of each plate. After incubation at 37° C. for 18 hours the minimum inhibitory concentration (MIC) defined as the minimum concentration of substance capable of inhibiting a bacterial growth noticeable to the naked eye at the area of deposition of the inoculums was read.
In the test with Streptococcus agalactiae the minimum inhibitory concentrations in the assay in liquid medium, regarding which only the bactericide minimum concentration values are indicated, could not be determined with sufficient reliability due to the turbidity of the solutions containing the substances. “Determination of the Minimum Inhibitory Concentration on Agarised Medium” was carried out to obtain the MIC values.

[6] = system: Candida albicans ATCC 10231; test: MBC against Candida albicans; type: cell-based; details: substance alone
Method: as §1

[7] = system: Candida albicans ATCC 10231; test: MIC against Candida albicans; type: cell-based; details: substance alone
Method: as §2, §3, §4
Subsequently, 50 μl of diluted bacterial inoculum as specified previously were deposited in all wells of the plate, except for the 11th of each row. Only the liquid medium at single concentration but bacteria-free, was deposited in the 11th well, with the aim of providing negative control for each row. The described scheme was used for the assay with each of the assayed microbial strains.
After incubation at the conditions indicated regarding each micro-organism, the microtitre plates were examined to verify, in each well, the presence or absence of bacterial growth. The minimum inhibitory concentration is defined as the lowest concentration of the substance still capable of inhibiting bacterial growth i.e. preventing the liquid from becoming turbid within the well.

[8] = system: Gardnerella vaginalis ATCC 14018; test: MIC against Gardnerella vaginalis; type: cell-based; details: substance alone
Method: as §2, §3, §4, §5

[9] = system: Gardnerella vaginalis ATCC 14018; test: MBC against Gardnerella vaginalis; type: cell-based; details: substance alone
Method: as §1

[10] = ATCC 12386 in M-Hb blood 2%, substance alone
[11] = Strain 2 in M-Hb blood 2%, substance alone
[12] = Strain 10 in M-Hb blood 2%, substance alone
[13] = Strain 11 in M-Hb blood 2%, substance alone

| SMILES | MIC (minimum inhibiting concentration) (Streptococcus agalactiae [5]; strain 2, substance alone) [%] | MIC (minimum inhibiting concentration) (Streptococcus agalactiae [5]; strain 5, substance alone) [%] | MIC (minimum inhibiting concentration) (Streptococcus agalactiae [5]; strain 6, substance alone) [%] | MIC (minimum inhibiting concentration) (Streptococcus agalactiae [5]; strain 7, substance alone) [%] | MIC (minimum inhibiting concentration) (Streptococcus agalactiae [5]; strain 8, substance alone) [%] | MIC (minimum inhibiting concentration) (Streptococcus agalactiae [5]; strain 9, substance alone) [%] | MIC (minimum inhibiting concentration) (Streptococcus agalactiae [5]; strain 10, substance alone) [%] | MIC (minimum inhibiting concentration) (Streptococcus agalactiae [5]; strain 11, substance alone) [%] | MIC (minimum inhibiting concentration) (Streptococcus agalactiae [5]; strain 12, substance alone) [%] | MIC (minimum inhibiting concentration) (Streptococcus agalactiae [5]; strain 13, substance alone) [%] | MIC (minimum inhibiting concentration) (Streptococcus agalactiae [5]; strain 14, substance alone) [%] | MIC (minimum inhibiting concentration) (Streptococcus agalactiae [5]; strain 15, substance alone) [%] | MIC (minimum inhibiting concentration) (Streptococcus agalactiae [5]; strain 16, substance alone) [%] | MIC (minimum inhibiting concentration) (Streptococcus agalactiae [5]; strain 17, substance alone) [%] | MIC (minimum inhibiting concentration) (Streptococcus agalactiae [5]; strain 18, substance alone) [%] | MIC (minimum inhibiting concentration) (Streptococcus agalactiae [5]; strain 19, substance alone) [%] | MIC (minimum inhibiting concentration) (Streptococcus agalactiae [5]; strain 20, substance alone) [%] | MIC (minimum inhibiting concentration) (Streptococcus agalactiae [5]; strain 21, substance alone) [%] | MIC (minimum inhibiting concentration) (Streptococcus agalactiae [5]; strain 22, substance alone) [%] | MIC (minimum inhibiting concentration) (Streptococcus agalactiae [5]; strain 23, substance alone) [%] | further results |
| --- | --- | --- | --- | --- | --- | --- | --- | --- | --- | --- | --- | --- | --- | --- | --- | --- | --- | --- | --- | --- | --- |
| CC1(C)S[C@@H]2[C@H](NC(=O)[C@H](N)c3ccccc3)C(=O)N2[C@H]1C(=O)O [Ampicillin, reference compound] | – | – | – | – | – | – | – | – | – | – | – | – | – | – | – | – | – | – | – | – | MBC [1]: ≦0.000012%; MBC (Streptococcus agalactiae [2]; Streptococcus agalactiae, ATCC12386, ATCC 12386 in M-Hb blood 2%, reference antibiotic, read-out: MBC): 0.5 µg/mL (≈ 1.43 µM); MBC (Streptococcus agalactiae [2]; Streptococcus agalactiae, Strain 2 in M-Hb blood 2%, reference antibiotic, read-out: MBC): < 0.06 µg/mL; MBC (Streptococcus agalactiae [2]; Streptococcus agalactiae, Strain 10 in M-Hb blood 2%, reference antibiotic, read-out: MBC): 1 µg/mL (≈ 2.86 µM); MBC (Streptococcus agalactiae [2]; Streptococcus agalactiae, Strain 11 in M-Hb blood 2%, reference antibiotic, read-out: MBC): < 0.06 µg/mL; concentrations required to perform the bactericidal action, times higher in strain 10 than against strain 2 and 11 (Streptococcus agalactiae [2]; strain 10 versus strains 2 and 11): at least 15 times; MIC [3]: ≦0.000012% |
| CCCCCCCCCCCC(=O)O [F, lauric acid] | 0.25 | 0.25 | 0.25 | 0.25 | 0.25 | 0.25 | 0.25 | 0.25 | 0.25 | 0.25 | 0.25 | 0.25 | 0.25 | 0.25 | 0.25 | 0.25 | 0.25 | 0.25 | 0.25 | 0.25 | solubility [4]: 10.1 mg/mL (≈ 50300 µM); MIC (minimum inhibiting concentration) (Streptococcus agalactiae [5]; strain 24, substance alone): 0.25%; MIC (minimum inhibiting concentration) (Streptococcus agalactiae [5]; strain 25, substance alone): 0.25%; MIC (minimum inhibiting concentration) (Streptococcus agalactiae [5]; strain 12386, substance alone): 0.25%; MIC (minimum inhibiting concentration) (Streptococcus agalactiae [5]; strain 12403, substance alone): 0.25%; MIC (minimum inhibiting concentration) (Streptococcus agalactiae [5]; strain 27956, substance alone): 0.25%; MBC (Streptococcus agalactiae [2]; [10]): 0.25; MBC (Streptococcus agalactiae [2]; [11]): ≧0.25; MBC (Streptococcus agalactiae [2]; [12]): ≧0.25; MBC (Streptococcus agalactiae [2]; [13]): 0.25 |
| CCCCCCCCCCCC(=O)OCC(O)CO (stereo not drawn) [G, monolaurate] | 0.11 | 0.11 | 0.11 | 0.11 | 0.22 | 0.11 | 0.22 | 0.11 | 0.11 | 0.11 | 0.11 | 0.11 | 0.11 | 0.11 | 0.22 | 0.11 | 0.11 | 0.11 | 0.11 | 0.11 | MIC (minimum inhibiting concentration) (Streptococcus agalactiae [5]; strain 24, substance alone): 0.11%; MIC (minimum inhibiting concentration) (Streptococcus agalactiae [5]; strain 25, substance alone): 0.11%; MIC (minimum inhibiting concentration) (Streptococcus agalactiae [5]; strain 12386, substance alone): 0.11%; MIC (minimum inhibiting concentration) (Streptococcus agalactiae [5]; strain 12403, substance alone): 0.11%; MIC (minimum inhibiting concentration) (Streptococcus agalactiae [5]; strain 27956, substance alone): 0.11%; MBC (Streptococcus agalactiae [2]; [10]): 0.107; MBC (Streptococcus agalactiae [2]; [11]): 0.107; MBC (Streptococcus agalactiae [2]; [12]): 0.428; MBC (Streptococcus agalactiae [2]; [13]): 0.107 |
| Clc1ccc(COC(Cn2ccnc2)c2ccc(Cl)cc2Cl)cc1 (stereo not drawn) [econazole] | – | – | – | – | – | – | – | – | – | – | – | – | – | – | – | – | – | – | – | – | MBC [6]: 0.0008%; MIC [7]: 0.000025% |
| Cc1ncc([N+](=O)[O-])n1CCO [metronidazole, reference compound] | – | – | – | – | – | – | – | – | – | – | – | – | – | – | – | – | – | – | – | – | MIC [8]: 0.0004%; MBC [9]: 0.0008% |
| Clc1ccc(COC(Cn2ccnc2)c2ccc(Cl)cc2Cl)c(Cl)c1 (stereo not drawn) [miconazole] | – | – | – | – | – | – | – | – | – | – | – | – | – | – | – | – | – | – | – | – | MBC [6]: 0.0008%; MIC [7]: 0.000012% |
